The NIST ThermoML archive (doi:10.1021/je500053c)
± gives the expanded uncertainty stated by the source.

How the values were obtained:
[1] = xn = mol fraction of the nth substance listed; conditions: 101 kPa, Liquid, Vibrating tube method
[2] = 101.33 kPa, Liquid, Vibrating tube method

O [water] + CCCCn1cc[n+](C)c1.CS(=O)(=O)[O-]
[1], x2 = 0
Conditions | mass density [kg/m3]
333.15 K | 983.2 ± 0.2
343.15 K | 977.8 ± 0.2
358.15 K | 968.3 ± 0.2

CCCCCC[n+]1ccn(C)c1.O=S(=O)([N-]S(=O)(=O)C(F)(F)F)C(F)(F)F
[2]
Conditions | mass density [kg/m3]
288.15 K | 1381.4 ± 0.6
298.15 K | 1372 ± 0.6
308.15 K | 1362.7 ± 0.5
318.15 K | 1353.5 ± 0.5

CCCCn1cc[n+](C)c1.CS(=O)(=O)[O-] [1-butyl-3-methylimidazolium methanesulfonate] + O
mass density [kg/m3], [1]
Conditions | x1 = 0.025 | x1 = 0.05 | x1 = 0.075 | x1 = 0.1 | x1 = 0.148 | x1 = 0.199 | x1 = 0.251 | x1 = 0.298 | x1 = 0.346 | x1 = 0.441
298.15 K | 1038.1 ± 2.9 | 1068.4 ± 2.1 | 1089.3 ± 1.5 | 1104.5 ± 1 | 1123.9 ± 0.7 | 1137.1 ± 0.5 | 1145.7 ± 0.4 | 1151.3 ± 0.3 | 1154.9 ± 0.3 | 1160.6 ± 0.3
313.15 K | 1031.2 ± 2.7 | 1059.7 ± 2 | 1079.7 ± 1.4 | 1093.5 ± 0.9 | 1113.6 ± 0.7 | 1126.8 ± 0.5 | 1135.5 ± 0.4 | 1141.2 ± 0.3 | 1144.8 ± 0.3 | 1150.6 ± 0.3
323.15 K | 1025.9 ± 2.6 | 1053.6 ± 1.9 | 1073.1 ± 1.4 | 1087.6 ± 0.9 | 1106.6 ± 0.7 | 1119.9 ± 0.5 | 1128.6 ± 0.4 | 1134.4 ± 0.3 | 1138.1 ± 0.3 | 1144 ± 0.3
333.15 K | 1020.1 ± 2.6 | 1047.1 ± 1.9 | 1066.2 ± 1.4 | 1080.5 ± 0.9 | 1099.5 ± 0.7 | 1112.9 ± 0.5 | 1121.7 ± 0.4 | 1127.6 ± 0.3 | 1131.4 ± 0.3 | 1137.3 ± 0.3
343.15 K | 1013.9 ± 2.5 | 1040.3 ± 1.8 | 1059.2 ± 1.3 | 1073.3 ± 0.9 | 1092.3 ± 0.7 | 1105.7 ± 0.5 | 1114.7 ± 0.4 | 1120.7 ± 0.3 | 1124.6 ± 0.3 | 1130.7 ± 0.3
358.15 K | 1003.9 ± 2.5 | 1029.7 ± 1.8 | 1048.2 ± 1.3 | 1062.3 ± 0.9 | 1081.2 ± 0.7 | 1094.9 ± 0.5 | 1104.1 ± 0.4 | 1110.3 ± 0.3 | 1114.4 ± 0.3 | 1120.7 ± 0.3
